Measurements: patent publication US20220323583A1, “Pharmaceutical Formulations of Bi-Specific Diabodies and Use of the Same” (MacroGenics, Inc., priority 2019, published 2022)
Values belong to the compound of their own block, whether it stands above or below them.

Columns and labels:
[1] = RP-HPLC for BA and MP recovery (preservative concentration); assay type: physicochemical; conditions: for Tested Benzyl Alcohol Concentration: Study 2, diluted DART-A DP formulation in cassette 25° C., 100 rpm, 5000 ng/mL, expected 0.86%
Protocol: Preservative recovery was measured using Reverse Phase (RP) HPLC analysis. The RP-HPLC configuration included a photodiode array (PDA) detector (λBA=254 nm, λMP=340 nm), a mobile phase composition of 40% acetonitrile, 0.1% formic acid and a Zorbax® 5 μm Eclipse-XDB-C18 80 Å liquid chromatography column. Samples were diluted ten-fold. The column temperature was set to 40±5° C. 50 μL of solution was injected for each 10-minute run.

USP recommended microbes = experiment: Microbial challenge testing, statements on several microbes together; assay type: cell-based
Protocol: Microbial challenge testing was performed to evaluate the preservative effect of stabilizer solutions containing ≤0.17% BA and ≤0.1% MP. Microbial challenge testing was chosen as it more accurately represents the proposed dose preparation and dilution scheme where doses will be prepared aseptically and the number of microbes that may be introduced to the solution would be low. Microbial challenge testing was performed in two stages. The first stage determined the effective concentrations of BA and MP while the second stage tested the final formulation according to USP specifications. Each stage is described in detail below.
To confirm the anti-microbial properties of Stabilizer 2 once diluted in saline (i.e., in the dosing solution), microbial growth testing was performed by SGS Life Sciences. The USP recommended microbes required for testing are listed below in Table 26.
A high dosing solution (150 kg patient at 1,000 ng/kg cohort) was prepared to represent the maximum preservative dilution. […] Microbial growth studies were performed on all five USP recommended microbes with a target concentration between 10 and 100 CFU/mL. The microbial growth results are listed below in Table 27.
Microbial Challenge Testing was performed to evaluate the preservative effect of stabilizer solutions. In short, high concentration (1250 ng/mL) dosing solution was prepared according Table 36. USP<51> recommended microbes were introduced to the solution with a target concertation between 10 and 100 CFU/mL. Solutions were stored at the USP<51> recommended temperature for each microbe and at predetermined time points, samples were collected. Testing of samples was performed according to USP<1227>. The threshold for no microbial growth was established to be not greater than 0.5 log colony count compared to the initial concentration of microbe.

[2] = Stabilizer solution optimizing studies (turbidity, miscibility, pH, MP in solution); assay type: physicochemical
Protocol: Since the BA concentration in the stabilizer solution is limited due to patient safety concerns, to increase the preservative effectiveness duration, the MP concentration in the stabilizer solution could be increased to 0.1%. However, when the concentrated stabilizer solution is presented as a 20 mL additive volume, this level of MP leads to high solution pH (≥9.0), solution turbidity, and PS80 immiscibility. To address these issues, a series of stabilizer solution optimizing studies were performed to determine the final concentrated stabilizer solution.
The first study explored lower levels of PS80 in the concentrated stabilizer solution to determine if the turbidity and solution instability or immiscibility issues can be addressed. […] However, this concentration of PS80 remains turbid at room temperature. A subsequent study evaluating larger concentrated stabilizer solution additive volume presentations was performed to determine if lowering the levels of all excipients in the concentrated stabilizer solution helps address the high turbidity issue. […] To determine optimal concentrated stabilizer solution pH, studies varying the formulation buffer strength were performed. […] As a result, variable concentrations of MP were evaluated in a subsequent study. […] Based on the results of the previous PS80 and MP studies, a final study was performed evaluating variable concentrations of MP and PS80 to determine the optimal combination that addresses solution turbidity at an acceptable pH. […] When 40 mL of this stabilizer solution is diluted in a 250 mL saline bag, the resulting dosing solution will contain 0.17% BA and 0.055% MP. […] As a result, the preservative effectiveness of the re-formulated Stabilizer 2 solution having final preservative levels of 0.17% BA and 0.05% MP in the dosing solution, was examined through microbial challenge testing of USP recommended microbes.
However, BA levels above 15.5 mg/mL result in solution instability or immiscibility and MP levels above 5.3 mg/mL produce a final solution above pH 8.4. […]

[3] = target: T1, soluble recombinant human IL-3 receptor alpha (rhIL3Rα) (Homo sapiens, UniProt P26951); experiment: ELISA (rhIL3Rα) DART-A quantitation assay (concentration, protein recovery); conditions: 0.05 mg/mL PS80 or 0.1 mg/mL PS80
T1 construct: soluble recombinant human IL-3 receptor alpha (rhIL3Rα)
T1 sequence (P26951 19-305 limits assumed): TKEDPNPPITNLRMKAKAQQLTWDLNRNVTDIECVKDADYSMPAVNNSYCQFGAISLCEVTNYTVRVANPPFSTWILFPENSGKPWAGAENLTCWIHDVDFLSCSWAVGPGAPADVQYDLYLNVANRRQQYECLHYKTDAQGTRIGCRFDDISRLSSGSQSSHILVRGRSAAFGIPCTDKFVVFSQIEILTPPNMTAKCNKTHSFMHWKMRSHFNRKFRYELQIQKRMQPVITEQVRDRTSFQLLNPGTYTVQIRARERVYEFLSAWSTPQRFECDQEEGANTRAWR
Protocol: In brief, the assay plate was coated with soluble recombinant human IL-3 receptor alpha (rhIL3Rα) overnight. […] After addition of MSD Read Buffer, the plate was inserted into the Sector Imager 2400 Plate Reader. When a voltage was applied to the plate electrodes, the bound Sulfo-TAG label produces an ECL signal, which was captured by the plate reader. A quantitative measure of the ECL signal emitted by each well was recorded, and the ECL counts emitted by the standard calibrators were used to generate a standard curve using a 4-parameter logistic (4PL) fit.

BA content ([1]; Study 2, 25° C., 100 rpm shaking for up to 72 hours): at least 0.75% | Tested Benzyl Alcohol Concentration ([1]; T = 0): 0.91% | Tested Benzyl Alcohol Concentration ([1]; T = 24 hours): 0.78% | Tested Benzyl Alcohol Concentration ([1]; T = 48 hours): 0.76% | Tested Benzyl Alcohol Concentration ([1]; T = 72 hours): 0.78% | BA level that results in solution instability or immiscibility ([2]; stabilizer solution): above 15.5 mg/mL
Compound: OCc1ccccc1 [Benzyl Alcohol, benzyl alcohol]
antimicrobial property (USP recommended microbes; BA 0.17% alone (single pump target concentration)): does not inhibit growth | antimicrobial property (USP recommended microbes; BA 0.9% (concentration in Stabilizer 1), P. aeruginosa and C. albicans): both bactericidal and fungicidal | BA concentration that provided sufficient anti-microbial activity (USP recommended microbes; previous study): 0.61%

share of the target MP concentration that stays in solution ([2]; concentrated stabilizer solution, pH≤8.0): 30-50% | MP level that produces a final solution above pH 8.4 ([2]; stabilizer solution): above 5.3 mg/mL
Compound: COC(=O)c1ccc(O)cc1 [MP, methylparaben]

blocking activity (inhibition of DART-A adsorption) [3]: sufficient blocking activity
Compound: polysorbate 80 [PS80]
